In patent US4952592A, “1,4-dihydro 2,6-dimethyl 4-(2,3-methylenedioxyphenyl) 3-alkoxy carbonyl 5-[2-(substituted amino)ethoxy]carbonyl pyridine” (Instituto de Investigacion Y Desarrollo Quimicobiologico …, priority 1987, dated 1990):

Key:
rat aorta = assay: Inhibitory effects with respect to contractions of the rat aorta induced by 80 mM KCl; type: cell-based, WISTAR rats; details: isolated rat aorta
Method: The compounds of the present invention were tested for their calcium-inhibitory properties by standard methods applicable "in vitro".
Inhibitory effects with respect to contractions of the rat aorta induced by 80 mM KCl.
The aorta of WISTAR rats (220-250 g), sacrificed by decapitation, are removed and placed in a 20-ml organ bath at a temperature of 34° C., containing a KREBS solution composed as follows (in mmol per liter): NaCl, 137; KCl, 2.7; MgCl2.6H2 O, 1.04; CaCl2.2H2 O, 0.8; Na2 HPO4.H2 O, 0.42; NaHCO3, 11.9; glucose, 5. This solution is oxygenated with a mixture of 95% of O2 and 5% of CO2 (Furchgott and Bhadakron, 1956).
After a 45-minute stabilization period under a tension of 2 g, the maximal contractions of the artery are induced by adding KCl to the bath until a final concentration of 80 mmol/liter is attained. After the contractions have stabilized, the compounds of the invention, or OXODIPINE as control substance, are added, leaving a period of at least 10 minutes for stabilizing the relaxation.
The compounds of the present invention are dissolved in ethanol to give concentrated solutions containing approximately 1 mg/ml, from which the dilutions used above, from 10^-13 to 10^-7 M, are obtained by adding saline solution. The 50% inhibitory concentrations (IC50) are determined by analysis of the straight regression line.

[1] = test system: conscious renal hypertensive rats; assay: antihypertensive activity on conscious renal hypertensive rats (systolic blood pressure, tail sleeve); type: in vivo, rat; details: i.p.; for decrease of the original high pressure: 1 mg/kg
Method: (2)1- antihypertensive activity:
A few compounds according to the invention were tested for their antihypertensive activity on conscious renal hypertensive rats. The systolic blood pressure was measured on the tail of unanaesthetized rats by means of an inflatable sleeve and an L.H.5 000 digital pressure gauge (Letica Instruments, Barcelona, Spain). The measurements were carried out before the i.p. administration of the test substance, and then 30 minutes, 1, 2, 4 and 5 hours after administration. The animals were maintained in preheated plastic cylinders during the measurements. Rats having a blood pressure of less than 160 mmHg were eliminated from the experiment.
Each compound was administered in 5% strength suspension (CMC) by i.p. injection.

in vivo = details: mouse, ip, mice, i.p., mortality in 7 days, read-out: intraperitoneal LD50
Method: The acute toxicity of a few compounds of the invention was determined in mice according to the method of […] and WILCOXON. Groups of 5 mice weighing 20-25 g were treated with increasing i.p. doses of the test compounds. The mortality was recorded in the 7 days following the treatment, and the LD50 calculated on this basis.

coronary vessels = assay: Vascular activity in anaesthetized dogs: regional blood flows and haemodynamics with coronary artery occlusion; type: in vivo; details: i.v.
Method: The beneficial effects on the oxygen supply/consumption balance may be accompanied by a modification of the blood distribution within the wall, which will be better irrigated, and by an increase in the blood flow in the collateral vessels during an acute occlusion of the coronary artery. The effects of the compound of Example 11, at doses of 10 and less than 10 μg/kg i.v., were explored in anaesthetized dogs in order to determine: the regional (endocardium, epicardium) myocardial blood flows in the ischaemic and non-ischaemic zones, the ratio between the endo- and epicardial flows and the ratio of the flows in the ischaemic/nonischaemic zone, the regional blood flows in other areas (spleen, pancreas, kidney, liver, stomach, intestines, muscle, skin) in order to define the selectivity of action of the compound. The studies were carried out on 6 adult dogs, according to the technique of […] and […]. Pharmacol. 1985 - 16 - 59 - 74 and J. Pharmacol. Exp. Ther. 1982, 221, 740-747). In addition, the haemodynamic parameters (heart rate, arterial blood pressure, left ventricular pressure, cardiac flow, total peripheral resistance, systolic ejection volume, cardiac work, contractility index) were monitored at regular times, before and after 3 successive short periods (12 minutes) of total occlusion of the coronary artery, the injection of radioactive microspheres enabling the regional flows to be evaluated. After the first period of ischaemia, the parameters were allowed to return to normal before the test compound was injected, the second occlusion was then performed and this procedure was repeated, the reversibility of the parameters being complete approximately 45 minutes after each occlusion. The test compound was administered in aqueous-alcoholic solution (0.1 mg/ml) on the basis of 0.1 ml/kg i.v.

[2] = 3 mg/kg/min and above, in words; cited from earlier work

For `CNCCOC(=O)C1=C(C)NC(C)=C(C(=O)OC)C1c1cccc2c1OCO2` (centres unmarked) [Example 1, 3-Methyl 5-[2-(N-methylamino)ethyl]1,4-dihydro-2,6-dimethyl-4-(2,3-methylenedioxyphenyl)-3,5-pyridinedicarboxylate], which IC50 (rat aorta) is on record?
The IC50 was 1920 nM.

Which IC50 (rat aorta) does the source give for `COC(=O)C1=C(C)NC(C)=C(C(=O)OCCN(C)C=O)C1c1cccc2c1OCO2` (centres unmarked) [Example 2, 3-Methyl 5-[2-(N-formyl-N-methylamino)ethyl]1,4-dihydro-2,6-dimethyl-4-(2,3-methylenedioxyphenyl)-3,5-pyridinedicarboxylate] here?
The IC50 was 558 nM.

For `COC(=O)C1=C(C)NC(C)=C(C(=O)OCCN(C=O)Cc2ccccc2)C1c1cccc2c1OCO2` (centres unmarked) [Example 3, 3-Methyl 5-[2-(N-formyl-N-benzylamino)ethyl]1,4-dihydro-2,6-dimethyl-4-(2,3-methylenedioxyphenyl)-3,5-pyridinedicarboxylate], which IC50 (rat aorta) is on record?
Its IC50 is 52.8 nM.

With `COC(=O)C1=C(C)NC(C)=C(C(=O)OCCN(C)Cc2ccccn2)C1c1cccc2c1OCO2` (centres unmarked) [Example 4, 3 -Methyl 5-{2-[N-methyl-N-(2-picolyl)amino]ethyl}1,4-dihydro-2,6-dimethyl-4-(2,3-methylenedioxyphenyl)-3,5-pyridinedicarboxylate] as the compound, how does the IC50 (rat aorta) read?
The IC50 was 81.1 nM.

Which IC50 (rat aorta) does the source give for `COC(=O)C1=C(C)NC(C)=C(C(=O)OCCN(C)Cc2ccncc2)C1c1cccc2c1OCO2` (centres unmarked) [Example 5, 3-Methyl 5{2-[N-methyl-N-(4-picolyl)amino]ethyl}1,4-dihydro-2,6-dimethyl-4-(2,3-methylenedioxyphenyl)-3,5-pyridinedicarboxylate] here?
Its IC50 is 245 nM.

For `COC(=O)C1=C(C)NC(C)=C(C(=O)OCCN(C)Cc2cccnc2)C1c1cccc2c1OCO2` (centres unmarked) [Example 6, 3-Methyl 5-{2-[N-methyl-N-(3-picolyl)amino]ethyl}1,4-dihydro-2,6-dimethyl-4-(2,3-methylenedioxyphenyl)-3,5-pyridinedicarboxylate], which IC50 (rat aorta) is on record?
The IC50 was 9 nM.

Which IC50 (rat aorta) does the source give for `COC(=O)C1=C(C)NC(C)=C(C(=O)OCCN(C)Cc2ccc(F)cc2)C1c1cccc2c1OCO2` (centres unmarked) [Example 7, 3-Methyl 5-{2-[N-methyl-N-(4-fluorobenzyl)amino]ethyl}1,4-dihydro-2,6-dimethyl-4-(2,3-methylenedioxyphenyl)-3,5-pyridinedicarboxylate] here?
The IC50 was 2.75 nM.

For `CCOC(=O)C1=C(C)NC(C)=C(C(=O)OCCN(C)Cc2ccc(F)cc2)C1c1cccc2c1OCO2` (centres unmarked) [Example 8, 3-Ethyl 5-{2-[N-methyl-N-(4-fluorobenzyl)amino]ethyl}1,4-dihydro-2,6-dimethyl-4-(2,3-methylenedioxyphenyl)-3,5-pyridinedicarboxylate], which IC50 (rat aorta) is on record?
The IC50 was 0.04 nM.

What about the “decrease of the original high pressure” value [1] of the same compound?
Its value is 23%.

What about the LD50 at 168 h (in vivo) of the same compound?
Its LD50 at 168 h is 70 to 80 mg/kg.

Which IC50 (rat aorta) does the source give for `COC(=O)C1=C(C)NC(C)=C(C(=O)OCCN(C)Cc2cccs2)C1c1cccc2c1OCO2` (centres unmarked) [Example 9, 3-Methyl 5-{2-[N-methyl-N-(2-thienylmethyl)amino]ethyl}1,4-dihydro-2,6-dimethyl-4-(2,3-methylenedioxyphenyl)-3,5-pyridinedicarboxylate] here?
Its IC50 is 13 nM.

With `CCOC(=O)C1=C(C)NC(C)=C(C(=O)OCCN(C)Cc2cccs2)C1c1cccc2c1OCO2` (centres unmarked) [Example 10, 3-Ethyl 5-{2-[N-methyl-N-(2-thienylmethyl)amino]ethyl}1,4-dihydro-2,6-dimethyl-4-(2,3-methylenedioxyphenyl)-3,5-pyridinedicarboxylate] as the compound, how does the IC50 (rat aorta) read?
Its IC50 is 0.904 nM.

For `CC1=C(C(=O)OCCN(C)Cc2ccc(F)cc2)C(c2cccc3c2OCO3)C(C(=O)OC(C)C)=C(C)N1` (centres unmarked) [Example 11, 3-Isopropyl 5-{2-[N-methyl-N-(4-fluorobenzyl)amino]ethyl}1,4-dihydro-2,6-dimethyl-4-(2,3-methylenedioxyphenyl)3,5-pyridinedicarboxylate], which “decrease of the original high pressure” value [1] is on record?
Its value is 33%.

And the “duration of antihypertensive effects” value [1]?
The value was “more than 6 hours”.

And the LD50 at 168 h (in vivo)?
The LD50 at 168 h was 30 to 40 mg/kg.

What about the “arterial blood pressure change” value (coronary vessels) of the same compound?
The value was -13%.

And the cardiac flow change (coronary vessels)?
Its cardiac flow change is “+9%”.

And the heart rate change (coronary vessels)?
Its heart rate change is -9%.

What about the “systolic ejection volume change” value (coronary vessels) of the same compound?
The value was “+18%”.

And the “total peripheral resistance reduction” value (coronary vessels)?
Its value is 20%.

And the epicardial flow increase (coronary vessels; ischaemic zones)?
The epicardial flow increase was no less than 20%.

And the endo/epi ratio change (coronary vessels; ischaemic zones, p<0.05)?
Its endo/epi ratio change is -21%.

And the transmural flow increase (coronary vessels; non-ischaemic zones)?
The transmural flow increase was 42%.

And the endo/epi ratio change (coronary vessels; non-ischaemic zones, p<0.001)?
The endo/epi ratio change was -22%.

And the epicardial flow change (coronary vessels; non-ischaemic zones, p<0.001)?
The epicardial flow change was “+62%”.

And the “coronary vascular resistance change” value (coronary vessels; non-ischaemic zones, p<0.05)?
The value was -38%.

And the endocardial flow change (coronary vessels; non-ischaemic zones, p<0.05)?
The endocardial flow change was “+26%”.

For `CC1=C(C(=O)OCCN(C)Cc2cccs2)C(c2cccc3c2OCO3)C(C(=O)OC(C)C)=C(C)N1` (centres unmarked) [Example 12, 3-Isopropyl 5-{2-[N-methyl-N-(2-thienylmethyl)amino]ethyl}1,4-dihydro-2,6-dimethyl-4-(2,3-methylenedioxyphenyl)-3,5-pyridinedicarboxylate], which IC50 (rat aorta) is on record?
Its IC50 is 22.5 nM.

Which heart rate [2] does the source give for `COC(=O)C1=C(C)NC(C)=C(C(=O)OC)C1c1ccccc1[N+](=O)[O-]` [NIFEDIPINE] here?
Its heart rate is “increased”.

And the myocardial regional flows [2]?
The myocardial regional flows was “decreases the myocardial regional flows”.

And the perfusion pressure [2]?
The perfusion pressure was “strongly reduced”.

For `CCOC(=O)C1=C(C)NC(C)=C(C(=O)OC)C1c1cccc2c1OCO2` (centres unmarked) [OXODIPINE, reference compound], which IC50 (rat aorta) is on record?
Its IC50 is 3.1 nM.
